Laboratory results as given in US10294246B2, “Substituted boronic acids and boronate esters as immunoproteasome inhibitors” (MERCK PATENT GMBH, priority 2014, dated 2019).

Legend:
[1] = target: human constitutive proteasome (Beta5) (Homo sapiens (Human), UniProt P28074); assay: Determination of Beta5 activity (fluorescence intensity assay, Suc-LLVY-AMC); assay type: biochemical; details: purified human constitutive proteasome 1.25 nM, Suc-LLVY-AMC 40 μM
Description: Determination of Beta5 Activity:
Measurement of Beta5 inhibition is performed in 384 well format based on fluorescence intensity assay.
(§1) Purified human constitutive proteasome (1.25 nM) and serial diluted compounds in DMSO (range of concentrations from 30 μM to […]) or controls are incubated for 20 minutes at 25° C. in assay buffer containing 50 mM Tris pH 7.4, 0.03% SDS, 1 mM EDTA and 1% DMSO. The reaction is initiated by the addition of the fluorogenic peptide substrate, Suc-LLVY-AMC (Bachem 1-1395), at a concentration of 40 μM. After 60 minutes of incubation at 37° C., fluorescence intensity is measured at λex=350 nm and λem=450 nm with a fluorescence reader (Perkin Elmer Envision reader or equivalent).

[2] = target: human immunoproteasome (LMP7) (Homo sapiens (Human), UniProt P28062); assay: Determination of LMP7 activity (fluorescence intensity assay, Suc-LLVY-AMC); assay type: biochemical; details: for Selectivity LMP7 vs Beta5: LMP7 versus Beta5; for IC50: purified human immunoproteasome 0.25 nM, Suc-LLVY-AMC 40 μM
Description: Determination of LMP7 Activity:
Measurement of LMP7 inhibition is performed in 384 well format based on fluorescence intensity assay.
as §1, with “immunoproteasome (0.25” for “constitutive proteasome (1.25”

Compound | IC50 [1] [nM] | Selectivity LMP7 vs Beta5 [2] | IC50 [2] [nM]
O=C(COc1ncc(Cl)cc1Cl)N[C@@H](Cc1ccccc1)B(O)O [Compound No. 1, [(1R)-1-[[2-[(3,5-dichloro-2-pyridyl)oxy]acetyl]amino]-2-phenyl-ethyl]boronic acid] | 50 to 500 | ++ (10 ≤ Selectivity < 50) | < 50
O=C(COc1ccccn1)N[C@@H](Cc1ccccc1)B(O)O [Compound No. 2, [(1R)-2-phenyl-1-[[2-(2-pyridyloxy)acetyl]amino]ethyl]boronic acid] | 500 to 5000 | ++ (10 ≤ Selectivity < 50) | 50 to 500
O=C(COc1ccccc1)N[C@@H](Cc1ccccc1)B(O)O [Compound No. 3, [(1R)-1-[(2-phenoxyacetyl)amino]-2-phenyl-ethyl]boronic acid] | 50 to 500 | ++ (10 ≤ Selectivity < 50) | < 50
Cc1ccc(C[C@H](NC(=O)CCOc2ccccc2)B(O)O)cc1 [Compound No. 4, [(1R)-1-(3-phenoxypropanoylamino)-2-(p-tolyl)ethyl]boronic acid] | 50 to 500 | ++ (10 ≤ Selectivity < 50) | < 50
COc1ccc(OCCC(=O)N[C@@H](Cc2ccc(C)cc2)B(O)O)cc1 [Compound No. 5, [(1R)-1-[3-(4-methoxyphenoxy)propanoylamino]-2-(p-tolyl)ethyl]boronic acid] | 50 to 500 | ++ (10 ≤ Selectivity < 50) | < 50
O=C(Cc1ccccc1)N[C@@H](Cc1coc2ccccc12)B(O)O [Compound No. 6, [(1R)-2-(benzofuran-3-yl)-1-[(2-phenylacetyl)amino]ethyl]boronic acid] | 50 to 500 | +++++ (Selectivity ≥ 100) | < 50
Cc1ccc(OCCC(=O)N[C@@H](Cc2coc3ccccc23)B(O)O)cc1 [Compound No. 7, [(1R)-2-(benzofuran-3-yl)-1-[3-(4-methylphenoxy)propanoylamino]-ethyl]boronic acid] |  | +++ (50 ≤ Selectivity < 70) | 
O=C(Cc1cccnc1)N[C@@H](Cc1coc2ccccc12)B(O)O [Compound No. 8, [(1R)-2-(benzofuran-3-yl)-1-[[2-(3-pyridyl)acetyl]amino]ethyl]boronic acid] | 50 to 500 | +++ (50 ≤ Selectivity < 70) | < 50
N#Cc1ccc(CC(=O)N[C@@H](Cc2coc3ccccc23)B(O)O)cc1 [Compound No. 9, [(1R)-2-(benzofuran-3-yl)-1-[[2-(4-cyanophenyl)acetyl]amino]ethyl]-boronic acid] | 50 to 500 | ++++ (70 ≤ Selectivity < 100) | < 50
COc1ccc(CC(=O)N[C@@H](Cc2coc3ccccc23)B(O)O)cc1 [Compound No. 10, [(1R)-2-(benzofuran-3-yl)-1-[[2-(4-methoxyphenyl)acetyl]amino]ethyl]-boronic acid] | 50 to 500 | ++++ (70 ≤ Selectivity < 100) | < 50
O=C(COc1cccnc1)N[C@@H](Cc1coc2ccccc12)B(O)O [Compound No. 11, [(1R)-2-(benzofuran-3-yl)-1-[[2-(3-pyridyloxy)acetyl]amino]ethyl]-boronic acid] | 50 to 500 | ++ (10 ≤ Selectivity < 50) | < 50
COc1cccc(CC(=O)N[C@@H](Cc2coc3ccccc23)B(O)O)n1 [Compound No. 12, [(1R)-2-(benzofuran-3-yl)-1-[[2-(6-methoxy-2-pyridyl)acetyl]amino]-ethyl]boronic acid] | 50 to 500 | +++ (50 ≤ Selectivity < 70) | < 50
CCOc1ccc(CC(=O)N[C@@H](Cc2coc3ccccc23)B(O)O)nc1 [Compound No. 13, [(1R)-2-(benzofuran-3-yl)-1-[[2-(5-ethoxy-2-pyridyl)acetyl]amino]-ethyl]boronic acid] | 50 to 500 | +++++ (Selectivity ≥ 100) | < 50
Cc1ccc(C[C@H](NC(=O)Cc2ccccc2)B(O)O)cc1 [Compound No. 14, [(1R)-1-[(2-phenylacetyl)amino]-2-(p-tolyl)ethyl]boronic acid] | 500 to 5000 | +++ (50 ≤ Selectivity < 70) | 50 to 500
COc1cccc(CC(=O)N[C@@H](Cc2coc3ccccc23)B(O)O)c1 [Compound No. 15, [(1R)-2-(benzofuran-3-yl)-1-[[2-(3-methoxyphenyl)acetyl]amino]ethyl]-boronic acid] | 50 to 500 | ++++ (70 ≤ Selectivity < 100) | < 50
Cc1ccc(C[C@H](NC(=O)[C@H](O)c2ccccc2)B(O)O)cc1 [Compound No. 16, [(1R)-1-[[(2R)-2-hydroxy-2-phenyl-acetyl]amino]-2-(p-tolyl)ethyl]-boronic acid] | 500 to 5000 | ++ (10 ≤ Selectivity < 50) | 50 to 500
Cc1ccc(C[C@H](NC(=O)[C@@H](O)c2ccccc2)B(O)O)cc1 [Compound No. 17, [(1R)-1-[[(2S)-2-hydroxy-2-phenyl-acetyl]amino]-2-(p-tolyl)ethyl]-boronic acid] | > 5000 | ++ (10 ≤ Selectivity < 50) | 50 to 500
O=C(Cc1cnccn1)N[C@@H](Cc1coc2ccccc12)B(O)O [Compound No. 18, [(1R)-2-(benzofuran-3-yl)-1-[(2-pyrazin-2-ylacetyl)amino]ethyl]boronic acid] | 50 to 500 | ++ (10 ≤ Selectivity < 50) | < 50
O=C(Cc1ccncc1)N[C@@H](Cc1coc2ccccc12)B(O)O [Compound No. 19, [(1R)-2-(benzofuran-3-yl)-1-[[2-(4-pyridyl)acetyl]amino]ethyl]boronic acid] | 500 to 5000 | +++ (50 ≤ Selectivity < 70) | < 50
O=C(Cc1ncccn1)N[C@@H](Cc1coc2ccccc12)B(O)O [Compound No. 20, [(1R)-2-(benzofuran-3-yl)-1-[(2-pyrimidin-2-ylacetyl)amino]ethyl]-boronic acid] | 50 to 500 | ++ (10 ≤ Selectivity < 50) | < 50
CC(=O)Nc1ccc(CC(=O)N[C@@H](Cc2ccc(C)cc2)B(O)O)cc1 [Compound No. 21, [(1R)-1-[[2-(4-acetamidophenyl)acetyl]amino]-2-(p-tolyl)ethyl]boronic acid] | > 5000 | ++ (10 ≤ Selectivity < 50) | < 50
O=C(Cc1cc(F)c(F)c(F)c1)N[C@@H](Cc1coc2ccccc12)B(O)O [Compound No. 22, [(1R)-2-(benzofuran-3-yl)-1-[[2-(3,4,5-trifluorophenyl)acetyl]amino]-ethyl]boronic acid] | 50 to 500 | ++++ (70 ≤ Selectivity < 100) | < 50
O=C(N[C@@H](Cc1coc2ccccc12)B(O)O)C(F)(F)c1ccccc1 [Compound No. 23, [(1R)-2-(benzofuran-3-yl)-1-[(2,2-difluoro-2-phenyl-acetyl)amino]-ethyl]boronic acid] | 500 to 5000 | +++++ (Selectivity ≥ 100) | < 50
O=C(Cc1ccccc1C(F)(F)F)N[C@@H](Cc1coc2ccccc12)B(O)O [Compound No. 24, [(1R)-2-(benzofuran-3-yl)-1-[[2-[2-(trifluoromethyl)phenyl]acetyl]-amino]ethyl]boronic acid] | 500 to 5000 | +++++ (Selectivity ≥ 100) | < 50
O=C(Cc1c(Cl)cccc1Cl)N[C@@H](Cc1coc2ccccc12)B(O)O [Compound No. 25, [(1R)-2-(benzofuran-3-yl)-1-[[2-(2,6-dichlorophenyl)acetyl]amino]-ethyl]boronic acid] | 500 to 5000 | ++++ (70 ≤ Selectivity < 100) | < 50
CC(=O)Nc1ccc(CC(=O)N[C@@H](Cc2coc3ccccc23)B(O)O)cc1 [Compound No. 26, [(1R)-1-[[2-(4-acetamidophenyl)acetyl]amino]-2-(benzofuran-3-yl)ethyl]boronic acid] | 50 to 500 | +++++ (Selectivity ≥ 100) | 
CCO[C@@H](C(=O)N[C@@H](Cc1coc2ccccc12)B(O)O)c1ccccc1 [Compound No. 70, [(1R)-2-(benzofuran-3-yl)-1-[[(2R)-2-ethoxy-2-phenyl-acetyl]amino]-ethyl]boronic acid] |  | +++++ (Selectivity ≥ 100) | 
COc1ccc(CC(=O)N[C@@H](C[C@H]2COc3ccccc32)B(O)O)cc1 [Compound No. 122, [(1R)-2-[(3R)-2,3-dihydrobenzofuran-3-yl]-1-[[2-(4-methoxyphenyl)-acetyl]amino]ethyl]boronic acid] |  |  | 50 to 500
